Test results: paper PMC10251139 (SLAS discovery : advancing life sciences R & D, 2023)

Molecular target: T1, PLCγ2 (Homo sapiens, UniProt P16885)
T1 sequence (P16885 1-1195): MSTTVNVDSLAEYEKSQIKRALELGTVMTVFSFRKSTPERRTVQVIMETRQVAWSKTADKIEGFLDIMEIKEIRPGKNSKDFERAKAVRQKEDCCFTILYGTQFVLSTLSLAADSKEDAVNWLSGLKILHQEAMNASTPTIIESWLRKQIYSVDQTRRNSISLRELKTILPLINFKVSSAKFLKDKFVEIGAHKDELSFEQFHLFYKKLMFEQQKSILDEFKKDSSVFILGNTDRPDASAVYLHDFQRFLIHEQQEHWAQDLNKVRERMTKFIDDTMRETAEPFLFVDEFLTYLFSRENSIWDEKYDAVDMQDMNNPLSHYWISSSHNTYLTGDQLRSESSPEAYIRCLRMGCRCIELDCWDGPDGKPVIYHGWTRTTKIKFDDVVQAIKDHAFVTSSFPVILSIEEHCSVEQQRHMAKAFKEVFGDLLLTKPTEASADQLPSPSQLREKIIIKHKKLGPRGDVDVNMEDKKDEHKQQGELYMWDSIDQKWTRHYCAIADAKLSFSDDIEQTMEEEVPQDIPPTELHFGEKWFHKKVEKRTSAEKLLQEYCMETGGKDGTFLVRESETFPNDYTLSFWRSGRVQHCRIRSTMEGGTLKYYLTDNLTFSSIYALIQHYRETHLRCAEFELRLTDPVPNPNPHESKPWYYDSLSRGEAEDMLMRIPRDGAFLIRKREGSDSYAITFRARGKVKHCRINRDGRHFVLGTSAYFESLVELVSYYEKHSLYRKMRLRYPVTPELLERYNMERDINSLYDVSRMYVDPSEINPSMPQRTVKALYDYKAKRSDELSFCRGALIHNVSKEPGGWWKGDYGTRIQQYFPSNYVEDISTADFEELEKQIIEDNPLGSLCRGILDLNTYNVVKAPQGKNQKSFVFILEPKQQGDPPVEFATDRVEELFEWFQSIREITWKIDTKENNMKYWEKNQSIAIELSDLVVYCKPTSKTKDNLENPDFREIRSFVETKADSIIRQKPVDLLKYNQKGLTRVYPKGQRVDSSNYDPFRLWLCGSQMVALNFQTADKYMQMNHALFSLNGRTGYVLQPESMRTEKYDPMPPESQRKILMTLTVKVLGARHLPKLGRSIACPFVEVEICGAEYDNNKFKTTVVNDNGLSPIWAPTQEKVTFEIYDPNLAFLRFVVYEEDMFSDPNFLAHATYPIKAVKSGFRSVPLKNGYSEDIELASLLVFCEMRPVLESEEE
Experiment: inhibition of C8CF3-coumarin processing by purified enzyme
Type: biochemical

IC50: 27.2 µM
SMILES: Nc1ncnc2c1ncn2[C@@H]1O[C@H](COP(=O)(O)OP(=O)(O)OP(=O)(O)O)[C@@H](O)[C@H]1O [adenosine triphosphate]
